In US12606561B2, “Substituted pyrazolo[1,5-a][1,3,5]triazines as CDK inhibitors” (QURIENT CO., LTD., priority 2018, dated 2026):

Experiments:
[1] = biological target: T1, CDK1/Cyclin B (Homo sapiens, UniProt P06493); assay: Enzymatic assay for CDK1 (LANCE Ultra kinase assay, FRET based); assay type: biochemical; details: ATP at Km; read-out: CDK1 enzymatic activity IC50
T1 construct: purchased Invitrogen PR4768C
How it was run: (§1)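 Purified CDK7/Cyclin H/MNAT1 or CDK1/Cyclin B complexes were tested for inhibition at Km ATP. Phosphorylation of a ULight-labelled peptide was detected by FRET with a Europium anti-phospho antibody (LANCE Ultra).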

[2] = biological target: T2, CDK5/p25 (Homo sapiens, UniProt Q00535); assay: Enzymatic assay for CDK5 (LANCE Ultra kinase assay, FRET based); assay type: biochemical; details: ATP at Km
T2 construct: purchased Invitrogen PR8543B
T2 sequence (Q00535 whole entry): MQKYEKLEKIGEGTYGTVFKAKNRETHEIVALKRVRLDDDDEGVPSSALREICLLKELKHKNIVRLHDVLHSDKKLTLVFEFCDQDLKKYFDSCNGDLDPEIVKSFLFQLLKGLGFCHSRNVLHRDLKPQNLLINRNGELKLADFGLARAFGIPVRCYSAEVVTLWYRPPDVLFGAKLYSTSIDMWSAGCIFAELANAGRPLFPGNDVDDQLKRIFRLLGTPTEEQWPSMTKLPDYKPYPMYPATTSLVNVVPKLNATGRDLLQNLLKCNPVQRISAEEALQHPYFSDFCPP
T2 sequence (Q15078 99-307 partner limits assumed): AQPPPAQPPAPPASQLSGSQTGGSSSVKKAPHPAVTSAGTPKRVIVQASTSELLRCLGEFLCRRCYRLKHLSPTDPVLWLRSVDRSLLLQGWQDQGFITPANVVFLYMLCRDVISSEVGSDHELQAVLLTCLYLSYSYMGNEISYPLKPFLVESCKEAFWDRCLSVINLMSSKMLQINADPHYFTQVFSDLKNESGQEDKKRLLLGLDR
How it was run: (§2)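 TR-FRET kinase assay at ATP Km with ULight-MBP peptide (68 nM) and Eu-anti-phospho-MBP antibody; CDK2/Cyclin A at […], CDK5/p25 at […]. 8-dose 4-fold compound dilutions; 60 min kinase reaction at 23° C., EDTA stop, 60 min detection, read at 615/665 nm.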

[3] = tested on: A2780; assay: A2780 viability assay (CellTiter-Glo, 72 hours); assay type: cell-based; details: Homo sapiens; A2780 cells
Procedure: Human […] cell line, MV4-11_(ATCC, Cat #CRL-9591), NSCLC (Non-small cell lung cancer) cell line H460 (ATCC, Cat #HTB-177), A2780 (ECACC, Cat #93112519) and OVCAR-3(ATCC, Cat #HTB-161) were obtained from ATCC. Cells were grown in RPMI-1640 media (Invitrogen, Cat #22400-089) supplemented with 10% FBS (Invitrogen, Cat #10099141) and 1% penicillin/streptomycin (Invitrogen, Cat #15070063) and cultured at 37° C., 5% CO2 in a humidified chamber. All cell lines were routinely tested for mycoplasma.
To effect of the CDK7 inhibitor to inhibit the growth of target cancer cells, viability assay were conducted a 72 hour time period. Briefly, the candidate cell line was plated in 96 well plate at the following density of cells respectively. 1×10^4 cells/well for MV4-11, 5×10^3 for H460 and OVCAR-3, and 1×10^3 for A2780. After 24 hours, the cells were treated with various concentrations of the compound (ranging from 0.0015 uM to 10 uM). DMSO solvent without compound served as a control and final DMSO concentration lest than 0.1%. After 72 hours of incubation at 37° C., 5% CO2 incubator, cells were analyzed for the viability using the CellTiter-Glo Luminescent Cell Viability Assay (Promega, Cat #G7570). All viability assays were performed in duplicate and Luminescence was read using an Envision (Perkin Elmer, USA). Data was analyzed using XLfit software.

[4] = biological target: T3, CDK7/Cyclin H/MNAT1 (Homo sapiens, UniProt P50613); assay: Enzymatic assay for CDK7 (LANCE Ultra kinase assay, FRET based); assay type: biochemical; details: for IC50: ATP at Km
T3 construct: purchased Invitrogen PR6749B
T3 sequence (P50613 whole entry): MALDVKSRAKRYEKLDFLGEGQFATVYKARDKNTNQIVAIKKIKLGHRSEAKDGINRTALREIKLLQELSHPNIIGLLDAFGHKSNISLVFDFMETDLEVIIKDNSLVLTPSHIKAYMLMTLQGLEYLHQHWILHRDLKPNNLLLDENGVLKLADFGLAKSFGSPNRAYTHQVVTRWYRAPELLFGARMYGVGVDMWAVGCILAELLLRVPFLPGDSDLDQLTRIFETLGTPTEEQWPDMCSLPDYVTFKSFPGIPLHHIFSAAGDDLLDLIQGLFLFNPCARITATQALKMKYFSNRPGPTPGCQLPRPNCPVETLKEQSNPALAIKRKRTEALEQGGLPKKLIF
T3 sequence (P51946 whole entry partner): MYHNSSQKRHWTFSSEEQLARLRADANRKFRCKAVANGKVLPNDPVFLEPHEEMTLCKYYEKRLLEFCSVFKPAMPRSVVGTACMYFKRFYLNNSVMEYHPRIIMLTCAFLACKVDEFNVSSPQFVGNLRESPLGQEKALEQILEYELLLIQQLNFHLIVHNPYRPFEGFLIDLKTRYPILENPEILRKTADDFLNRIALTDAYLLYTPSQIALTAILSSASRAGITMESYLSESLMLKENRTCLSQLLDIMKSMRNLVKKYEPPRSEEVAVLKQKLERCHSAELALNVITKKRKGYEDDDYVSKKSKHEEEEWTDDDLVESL
T3 sequence (P51948 whole entry partner): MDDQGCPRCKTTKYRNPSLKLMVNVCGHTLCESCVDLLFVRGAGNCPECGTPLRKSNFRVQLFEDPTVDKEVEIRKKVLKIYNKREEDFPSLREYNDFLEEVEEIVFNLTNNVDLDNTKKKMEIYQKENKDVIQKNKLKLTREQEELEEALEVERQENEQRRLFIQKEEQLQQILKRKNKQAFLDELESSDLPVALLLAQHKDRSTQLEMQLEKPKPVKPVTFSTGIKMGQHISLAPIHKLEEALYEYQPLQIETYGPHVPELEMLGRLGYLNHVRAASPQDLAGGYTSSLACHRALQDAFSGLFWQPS
How it was run: as §1

[5] = biological target: T4, CDK2/Cyclin A (Homo sapiens, UniProt P24941); assay: Enzymatic assay for CDK2 (LANCE Ultra kinase assay, FRET based); assay type: biochemical; details: ATP at Km
T4 construct: purchased Invitrogen PV6290
How it was run: as §2

T1 sequence (P06493 whole entry): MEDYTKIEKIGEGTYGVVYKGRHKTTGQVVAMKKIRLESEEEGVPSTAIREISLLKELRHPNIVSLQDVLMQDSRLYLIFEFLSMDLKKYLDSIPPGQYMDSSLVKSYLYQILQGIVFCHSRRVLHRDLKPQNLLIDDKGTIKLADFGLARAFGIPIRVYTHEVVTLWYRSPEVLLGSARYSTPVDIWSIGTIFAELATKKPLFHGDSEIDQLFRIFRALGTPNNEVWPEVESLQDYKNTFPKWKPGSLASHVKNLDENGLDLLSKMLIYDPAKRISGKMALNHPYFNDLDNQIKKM
T1 sequence (P14635 whole entry partner): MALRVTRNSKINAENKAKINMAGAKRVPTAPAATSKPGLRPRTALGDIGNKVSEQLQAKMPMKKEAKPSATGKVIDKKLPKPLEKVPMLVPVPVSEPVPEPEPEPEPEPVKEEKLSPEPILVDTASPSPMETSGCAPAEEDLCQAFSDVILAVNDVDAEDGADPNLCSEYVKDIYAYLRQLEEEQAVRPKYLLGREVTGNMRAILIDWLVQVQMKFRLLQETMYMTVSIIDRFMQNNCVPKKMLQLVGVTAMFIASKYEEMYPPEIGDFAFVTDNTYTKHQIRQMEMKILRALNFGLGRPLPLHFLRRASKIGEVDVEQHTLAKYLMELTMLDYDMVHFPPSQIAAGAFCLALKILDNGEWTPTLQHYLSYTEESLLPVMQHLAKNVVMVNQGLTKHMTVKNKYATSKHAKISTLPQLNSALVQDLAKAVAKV

Row | IC50 [1] | IC50 [2] | IC50 [3] | IC50 [4] | CDK1/CDK7: Selectivity of CDK7 inhibition over CDK1 inhibition [4] | CDK2/CDK7: Selectivity of CDK7 inhibition over CDK2 inhibition [4] | CDK5/CDK7: Selectivity of CDK7 inhibition over CDK5 inhibition [4] | IC50 [5] | Structure (SMILES)
1 | > 1000 nM | > 1000 nM | < 1000 nM | < 100 nM | B (B indicates 50 < [fold] ≤ 500) | B (B indicates 50 < [fold] ≤ 500) | B (B indicates 50 < [fold] ≤ 500) | > 1000 nM | C=CC(=O)Nc1ccc2c(-c3ccccc3CNc3nc(-c4ccncc4)nc4c(C(C)C)cnn34)nccc2c1 [Compound 201]
2 | > 1000 nM | > 1000 nM | < 1000 nM | < 100 nM | A (A indicates [fold] > 500) | A (A indicates [fold] > 500) | A (A indicates [fold] > 500) | > 1000 nM | C=CC(=O)Nc1ccc2c(-c3ccccc3CNc3nc(N4CCc5ncccc5C4)nc4c(C(C)C)cnn34)nccc2c1 [Compound 212]
3 | > 1000 nM | > 1000 nM | < 1000 nM | < 100 nM | A (A indicates [fold] > 500) | A (A indicates [fold] > 500) | A (A indicates [fold] > 500) | > 1000 nM | C=CC(=O)Nc1ccc2c(-c3ccccc3CNc3nc(Nc4cccc(OC5CCC(C)(C)NC5)c4)nc4c(C(C)C)cnn34)nccc2c1 (stereo not shown) [Compound 194]
4 | > 1000 nM | > 1000 nM | < 1000 nM | < 100 nM | A (A indicates [fold] > 500) | A (A indicates [fold] > 500) | A (A indicates [fold] > 500) | > 1000 nM | C=CC(=O)Nc1ccc2c(-c3ccccc3CNc3cc(NC4CCC(C)(C)NC4)nc4c(C(C)C)cnn34)nccc2c1 (stereo not shown) [Compound 184]
5 | > 1000 nM | > 1000 nM | < 1000 nM | < 100 nM | A (A indicates [fold] > 500) | A (A indicates [fold] > 500) | A (A indicates [fold] > 500) | > 1000 nM | C=C(C)C(=O)Nc1ccc2c(-c3ccccc3CNc3nc(OC4CCC(C)(C)NC4)nc4c(C(C)C)cnn34)nccc2c1 (stereo not shown) [Compound 190]
6 | > 1000 nM | > 1000 nM | < 1000 nM | < 100 nM | A (A indicates [fold] > 500) | A (A indicates [fold] > 500) | A (A indicates [fold] > 500) | > 1000 nM | C=CC(=O)Nc1ccc2c(-c3ccccc3CNc3nc(NC4CCC(C)(C)NC4)nc4c(C(F)(F)F)cnn34)nccc2c1 (stereo not shown) [Compound 215]

The next lines start with the compound.

Row | Structure (SMILES) | IC50 [1] | IC50 [2] | IC50 [3] | IC50 [4] | CDK1/CDK7: Selectivity of CDK7 inhibition over CDK1 inhibition [4] | CDK2/CDK7: Selectivity of CDK7 inhibition over CDK2 inhibition [4] | CDK5/CDK7: Selectivity of CDK7 inhibition over CDK5 inhibition [4] | IC50 [5]
7 | C=CC(=O)Nc1ccc2c(-c3ccccc3CNc3cc(C4CC4)nc4c(C(C)C)cnn34)nccc2c1 [Compound 197] | > 1000 nM | > 1000 nM | < 1000 nM | < 100 nM | A (A indicates [fold] > 500) | A (A indicates [fold] > 500) | A (A indicates [fold] > 500) | > 1000 nM
8 | C=C(F)C(=O)N1CCc2c(cccc2-c2ccccc2CNc2nc(OC3CCC(C)(C)NC3)nc3c(C(C)C)cnn23)C1 (stereo not shown) [Compound 191] | > 1000 nM | > 1000 nM | < 1000 nM | < 100 nM | A (A indicates [fold] > 500) | A (A indicates [fold] > 500) | A (A indicates [fold] > 500) | > 1000 nM
9 | C=C(C)C(=O)Nc1ccc2c(-c3ccccc3CNc3cc(C(F)(F)F)nc4c(C(C)C)cnn34)nccc2c1 [Compound 208] | > 1000 nM | > 1000 nM | 1000 to 10000 nM | 100 to 1000 nM | B (B indicates 50 < [fold] ≤ 500) | B (B indicates 50 < [fold] ≤ 500) | B (B indicates 50 < [fold] ≤ 500) | > 1000 nM
10 | CC(C)c1cnn2c(NCc3ccccc3-c3nccc4cc(NC(=O)/C=C/CN(C)C)ccc34)nc(S(C)(=O)=O)nc12 [Compound 202] | > 1000 nM | > 1000 nM | < 1000 nM | < 100 nM | B (B indicates 50 < [fold] ≤ 500) | B (B indicates 50 < [fold] ≤ 500) | B (B indicates 50 < [fold] ≤ 500) | > 1000 nM
11 | C=CC(=O)Nc1ccc2c(-c3ccccc3CNc3cc(Cl)nc4c(C(C)C)cnn34)nccc2c1 [Compound 193] | > 1000 nM | > 1000 nM | < 1000 nM | < 100 nM | A (A indicates [fold] > 500) | A (A indicates [fold] > 500) | A (A indicates [fold] > 500) | > 1000 nM
12 | C=CC(=O)Nc1ccc2c(-c3cccc(C(F)(F)F)c3CNc3nc(Nc4cccnc4)nc4c(C(C)C)cnn34)nccc2c1 [Compound 213] | > 1000 nM | > 1000 nM | 1000 to 10000 nM | > 1000 nM | C (C indicates [fold] ≤ 50) | C (C indicates [fold] ≤ 50) | C (C indicates [fold] ≤ 50) | > 1000 nM
13 | CC(C)c1cnn2c(NCc3ccccc3-c3nccc4cc(NC(=O)/C=C/CN(C)C)ccc34)cc(N3CCNC(C(F)(F)F)C3)nc12 (stereo not shown) [Compound 214] | > 1000 nM | > 1000 nM | < 1000 nM | < 100 nM | A (A indicates [fold] > 500) | A (A indicates [fold] > 500) | A (A indicates [fold] > 500) | > 1000 nM
14 | C=CC(=O)N1CCc2c(ccnc2-c2ccccc2CNc2nc(OC3CCC(C)(C)NC3)nc3c(C(C)C)cnn23)C1 (stereo not shown) [Compound 203] | > 1000 nM | > 1000 nM | < 1000 nM | < 100 nM | A (A indicates [fold] > 500) | A (A indicates [fold] > 500) | A (A indicates [fold] > 500) | > 1000 nM
